# In ChEMBL document CHEMBL1137571 (J Med Chem, 2007):
# Legend:
# [1] = target: T1, Amine oxidase [flavin-containing] B (Homo sapiens, UniProt P27338); experiment: Inhibition of human recombinant MAOB expressed in Pichia pastoris
# T1 sequence (P27338 whole entry): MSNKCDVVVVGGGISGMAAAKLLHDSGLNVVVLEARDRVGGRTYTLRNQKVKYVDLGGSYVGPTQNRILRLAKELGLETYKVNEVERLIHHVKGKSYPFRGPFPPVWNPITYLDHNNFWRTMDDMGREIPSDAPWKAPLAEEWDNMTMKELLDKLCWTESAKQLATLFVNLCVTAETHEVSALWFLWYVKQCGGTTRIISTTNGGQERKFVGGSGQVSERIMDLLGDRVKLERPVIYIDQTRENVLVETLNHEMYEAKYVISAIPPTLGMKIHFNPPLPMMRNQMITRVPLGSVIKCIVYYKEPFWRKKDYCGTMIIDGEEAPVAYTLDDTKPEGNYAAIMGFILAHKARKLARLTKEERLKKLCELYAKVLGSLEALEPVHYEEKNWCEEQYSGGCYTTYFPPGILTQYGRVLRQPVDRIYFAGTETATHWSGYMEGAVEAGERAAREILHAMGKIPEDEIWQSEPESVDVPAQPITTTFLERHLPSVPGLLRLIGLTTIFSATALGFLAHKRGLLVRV
# [2] = target: T2, Amine oxidase [flavin-containing] A (Homo sapiens, UniProt P21397); experiment: Inhibition of human recombinant MAOA expressed in Pichia pastoris
# T2 sequence (P21397 whole entry): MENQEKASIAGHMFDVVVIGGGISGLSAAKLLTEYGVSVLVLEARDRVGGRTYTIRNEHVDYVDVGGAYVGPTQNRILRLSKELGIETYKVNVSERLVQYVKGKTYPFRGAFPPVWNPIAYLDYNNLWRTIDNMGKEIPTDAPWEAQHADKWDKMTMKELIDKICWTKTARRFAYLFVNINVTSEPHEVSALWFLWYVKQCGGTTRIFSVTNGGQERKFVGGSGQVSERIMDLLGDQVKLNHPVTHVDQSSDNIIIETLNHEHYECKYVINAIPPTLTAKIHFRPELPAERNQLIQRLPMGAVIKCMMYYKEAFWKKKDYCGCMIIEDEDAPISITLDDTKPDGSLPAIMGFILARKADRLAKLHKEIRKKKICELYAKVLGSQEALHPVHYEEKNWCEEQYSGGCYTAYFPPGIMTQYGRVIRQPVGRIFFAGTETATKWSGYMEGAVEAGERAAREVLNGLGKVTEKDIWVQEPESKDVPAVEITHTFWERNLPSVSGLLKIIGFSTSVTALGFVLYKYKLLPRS
Ki [1] [µM],Ki [2] [µM],Compound
0.4,11,O=Cc1cc(=O)oc2cc(OCc3cccc(Cl)c3)ccc12
0.1,15.7,CNCc1cc(=O)oc2cc(OCc3cccc(Cl)c3)ccc12
